In PubChem BioAssay (NCI):
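Growth conditions: 96-well plates. Treatment: test compound, 48 hours, 5 concentrations. Analysis: linear interpolation between bracketing concentrations; unreached endpoints set to highest concentration. GI50 = concentration required for 50% inhibition of growth. TGI is the concentration that stops growth completely.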

Legend:
Assay in all cases: NCI-60 cell line screen, 48 h
[1] = system: MOLT-4 leukemia
[2] = system: RPMI-8226 leukemia
[3] = system: SK-OV-3 ovarian
[4] = system: NCI-H460 lung
[5] = system: U251 CNS
[6] = system: SNB-19 CNS
[7] = system: EKVX NSCLC
[8] = system: HCT-15 colon
[9] = system: MDA-MB-231 breast
[10] = system: HCC-2998 colon

Cc1cc(Cl)ccc1OCC(=O)Nc1nc(N)nc(N)n1
TGI [1]: > 100 µM | TGI [2]: > 100 µM | TGI [3]: > 100 µM | TGI [4]: > 100 µM | TGI [5]: > 100 µM | TGI [6]: > 100 µM | TGI [7]: > 100 µM | TGI [8]: > 100 µM | TGI [9]: > 100 µM

CCOC(=O)CN(Cn1cncn1)Cn1cncn1
TGI [1]: > 100 µM | TGI [2]: > 100 µM | TGI [3]: > 100 µM | TGI [4]: 57.1 µM | TGI [5]: 33.7 µM | TGI [7]: > 100 µM | TGI [8]: 47.2 µM | TGI [10]: > 100 µM

CNc1ccc2ncccc2c1[N+](=O)[O-]
TGI [1]: > 100 µM | TGI [2]: > 100 µM | TGI [4]: > 100 µM | TGI [6]: > 100 µM | TGI [7]: > 100 µM | TGI [8]: > 100 µM | TGI [10]: > 100 µM

N#C/C(=C\c1cccc(O)c1O)C(N)=O
TGI [1]: > 100 µM | TGI [2]: 65.6 µM | TGI [3]: 93.7 µM | TGI [4]: > 100 µM | TGI [5]: > 100 µM | TGI [6]: > 100 µM | TGI [7]: > 100 µM | TGI [8]: > 100 µM | TGI [10]: 46.9 µM

Cl/C(N=Nc1ccccc1)=N/Nc1ccccc1
TGI [1]: > 100 µM | TGI [3]: > 100 µM | TGI [4]: > 100 µM | TGI [5]: > 100 µM | TGI [6]: > 100 µM | TGI [7]: > 100 µM | TGI [10]: > 100 µM

COc1ccc(-c2cc(C(=O)Nc3cc(C(F)(F)F)cc(C(F)(F)F)c3)c3ccccc3n2)cc1
TGI [1]: > 100 µM | TGI [2]: > 100 µM | TGI [4]: 19.4 µM | TGI [5]: 15.5 µM | TGI [7]: 27.4 µM | TGI [8]: 28.7 µM | TGI [10]: 29.7 µM

[O-]c1ccccc1C=Nc1ccc2c(c1)CCC2.[O-]c1ccccc1C=Nc1ccc2c(c1)CCC2.[O]=[U+2]=[O]
GI50 [1]: 12.4 µM | TGI [1]: > 100 µM | GI50 [2]: 16.5 µM | TGI [2]: > 100 µM | GI50 [3]: > 100 µM | TGI [3]: > 100 µM | GI50 [4]: 47.3 µM | TGI [4]: > 100 µM | GI50 [6]: 27.9 µM | TGI [6]: > 100 µM | GI50 [7]: > 100 µM | TGI [7]: > 100 µM | GI50 [8]: 28.3 µM | TGI [8]: > 100 µM | GI50 [10]: 57.1 µM | TGI [10]: > 100 µM

CN(C)/C=N\c1ccnc(=O)[nH]1
TGI [2]: > 100 µM | TGI [3]: > 100 µM | TGI [4]: > 100 µM | TGI [5]: > 100 µM | TGI [7]: > 100 µM | TGI [8]: > 100 µM

COc1ccc(OC(C(=O)O)C(C)C)c2c1CCCC2=O (stereo not given)
TGI [1]: > 100 µM | TGI [2]: > 100 µM | TGI [3]: > 100 µM | TGI [4]: > 100 µM | TGI [5]: > 100 µM | TGI [6]: > 100 µM | TGI [7]: > 100 µM | TGI [8]: > 100 µM | TGI [10]: > 100 µM

Cc1ccc(S(=O)(=O)N=NC=C2c3ccccc3N(O)c3ccccc32)cc1
TGI [1]: 4.11 µM | TGI [2]: 3.68 µM | TGI [3]: 27.9 µM | TGI [4]: 5.99 µM | TGI [5]: 13.1 µM | TGI [6]: 24.2 µM | TGI [7]: 40 µM | TGI [8]: 3.63 µM | TGI [10]: 21.6 µM

O=C(C#Cc1ccccc1)N1c2ccccc2CC1c1c[nH]c2ccccc12 (stereo not given)
TGI [1]: 46.6 µM | TGI [2]: 43.2 µM | TGI [3]: 51 µM | TGI [4]: 42.3 µM | TGI [5]: 35.8 µM | TGI [6]: > 100 µM | TGI [7]: 42.1 µM | TGI [8]: 24.9 µM | TGI [10]: 31.3 µM

Cc1c2c(cc3c1C(=O)C(=O)C1=C3OC[C@@H]1C)C(C)(C)CCC2
TGI [1]: 32 µM | TGI [3]: 82.8 µM | TGI [4]: 28.1 µM | TGI [5]: 34.4 µM | TGI [6]: 49.3 µM | TGI [7]: 58.7 µM | TGI [8]: 27.6 µM | TGI [10]: 42.4 µM

O=C1C(=O)N(c2ccc(Cl)cc2)C(=O)C(=O)C1c1nc2ccccc2s1
TGI [1]: > 100 µM | TGI [2]: > 100 µM | TGI [3]: > 100 µM | TGI [4]: > 100 µM | TGI [5]: > 100 µM | TGI [6]: > 100 µM | TGI [7]: > 100 µM | TGI [8]: > 100 µM | TGI [10]: > 100 µM

C#CCNC(=O)ON1C(=O)CCC1=O
TGI [1]: > 100 µM | TGI [2]: > 100 µM | TGI [3]: > 100 µM | TGI [4]: > 100 µM | TGI [5]: > 100 µM | TGI [6]: > 100 µM | TGI [7]: > 100 µM | TGI [8]: > 100 µM

COc1ccc2c(c1OC)-c1c(c3ccc([N+](=O)[O-])cc3c(=O)n1CCCBr)C2=O
GI50 [1]: 18.9 µM | TGI [1]: 52.7 µM | GI50 [2]: 25 µM | TGI [2]: > 100 µM | GI50 [3]: > 100 µM | TGI [3]: > 100 µM | GI50 [4]: 6.64 µM | TGI [4]: 68.8 µM | GI50 [6]: 69.9 µM | TGI [6]: > 100 µM | GI50 [7]: > 100 µM | TGI [7]: > 100 µM | GI50 [9]: 55 µM | TGI [9]: > 100 µM

O=C1OC(c2ccccc2)=N/C1=C\c1ccc(Oc2ccc(Cl)c(Cl)c2)cc1
TGI [1]: 60.6 µM | TGI [4]: > 100 µM | TGI [5]: 65.9 µM | TGI [6]: > 100 µM | TGI [7]: > 100 µM | TGI [8]: > 100 µM | TGI [10]: > 100 µM

NNc1cnn(-c2ccccc2)c(=O)c1Cl
TGI [1]: > 100 µM | TGI [2]: > 100 µM | TGI [3]: > 100 µM | TGI [4]: > 100 µM | TGI [5]: > 100 µM | TGI [8]: > 100 µM

O=c1cccccc1NCCCCCCCNc1cccccc1=O
TGI [1]: 53.4 µM | TGI [2]: 55.1 µM | TGI [3]: > 100 µM | TGI [4]: > 100 µM | TGI [6]: > 100 µM | TGI [7]: > 100 µM | TGI [8]: > 100 µM
